Structures are written as SMILES.

The test concerns major depressive disorders. The test is described as follows: Effect of osanetant on major depressive disorders in patients. The test is classed as in vivo, human. Particulars: patients 18 to 65 years of age with major depressive disorders; osanetant 200 mg/day for about 6 weeks. The protocol:
The effect of osanetant on major depressive disorders has been investigated in patients of between 18 and 65 years of age. The patients were given osanetant (200 mg/day) for a period of about 6 weeks.

Take `CC(=O)N(C)C1(c2ccccc2)CCN(CCC[C@]2(c3ccc(Cl)c(Cl)c3)CCCN(C(=O)c3ccccc3)C2)CC1` [osanetant, (R)-(+)-N-[(3-(1-benzoyl-3-(3,4-dichlorophenyl)piperidin-3-yl)propyl)-4-phenylpiperidin-4-yl]-N-methyl acetamide]: the “scores on the Hamilton scale (improvement in the depressive syndrome)” value is recorded as “significant reduction”.

(Values after patent US6420388B1, “Osanetant in the treatment of depression and depressive disorders” (Sanofi-Synthelabo, priority 1999, dated 2002).)
